Results taken from PMC4424837, “Toxin acidic residue evolutionary function-guided design of de novo peptide drugs for the immunotherapeutic target, the Kv1.3 channel” (Scientific Reports, 2015).
Positions of bridges follow the written chain, without caps; N, C: chain ends. Residues, ends and D or L forms follow the SMILES beside them. No end group written: not given here.

How the values were obtained:
Kv11.1 = experiment: Patch-clamp whole-cell recording of Kv11.1 channel currents in transfected HEK293 cells; type: cell-based, human; conditions: 1 μM peptide, compared with Kv1.3
Procedure: (§1) The cDNAs encoding mouse Kv1.1, human Kv1.2, mouse Kv1.3, human Kv7.1, human Kv11.1, human KCa3.1, human KCa2.2 and human KCa2.3 were subcloned into the Xho I and Bam HI sites of pIRES2-EGFP, a bicistronic expression vector (Clontech, USA) for coexpression with enhanced GFP.
(§2) Electrophysiological experiments were carried out using patch-clamp whole-cell recording as described previously[10][23][27][38]. HEK293 cells were transfected with appropriate cDNA plasmids using the SofastTM Transfection Reagent (Sunma). Potassium currents were recorded 1 to 3 days after transfection and positive cells were selected based on the presence of GFP fluorescence. Electrophysiological experiments were carried out at 22–25°C using patch-clamp whole-cell recording. Data analyses were performed with IgorPro (WaveMetrics, Lake Oswego, OR), and IC50 values were deduced by fitting a modified Hill equation to the data, Itoxin/Icontrol = 1/1 + ([toxin peptide]/IC50), where I is the peak current to the normalized data points obtained with at least five different toxin peptide concentrations. The results are mainly shown as the mean ± S.E, with n representing the number of experiments.

Kv1.3 channel = target: T1, Kv1.3 channel (Mus musculus, UniProt P16390); experiment: Patch-clamp whole-cell recording of Kv1.3 channel currents in transfected HEK293 cells; type: cell-based; conditions: for Reduction of the affinity of BmKTX-196 for the Kv1.3 channel: alanyl mutants of BmKTX-196
T1 construct: expressed in transfected cells; host or cells: HEK293 cells
T1 sequence (P16390 whole entry): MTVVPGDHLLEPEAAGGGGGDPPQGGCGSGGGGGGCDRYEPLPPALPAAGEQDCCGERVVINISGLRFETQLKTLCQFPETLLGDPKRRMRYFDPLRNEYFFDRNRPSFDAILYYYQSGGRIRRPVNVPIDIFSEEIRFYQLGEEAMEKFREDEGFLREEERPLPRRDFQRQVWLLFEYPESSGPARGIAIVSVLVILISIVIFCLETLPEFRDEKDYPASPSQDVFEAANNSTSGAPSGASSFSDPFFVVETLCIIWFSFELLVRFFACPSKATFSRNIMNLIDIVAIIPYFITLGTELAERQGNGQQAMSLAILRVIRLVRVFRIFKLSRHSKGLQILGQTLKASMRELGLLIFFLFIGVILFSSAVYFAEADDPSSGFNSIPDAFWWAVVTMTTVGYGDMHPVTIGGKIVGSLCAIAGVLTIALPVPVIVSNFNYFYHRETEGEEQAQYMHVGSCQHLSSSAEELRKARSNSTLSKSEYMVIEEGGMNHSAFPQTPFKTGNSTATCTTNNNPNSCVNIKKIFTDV
Procedure: as §1, §2

CC[C@H](C)[C@H](NC(=O)CNC(=O)[C@@H](N)C(C)C)C(=O)N[C@@H](CC(N)=O)C(=O)N[C@H](C(=O)N[C@@H](CC(=O)O)C(=O)N[C@H]1CSSC[C@@H]2NC(=O)[C@H](CCCCN)NC(=O)CNC(=O)[C@H](Cc3ccccc3)NC(=O)[C@H](CCCNC(=N)N)NC(=O)[C@H](CCSC)NC(=O)CNC(=O)[C@H](C)NC(=O)[C@H](CCCCN)NC(=O)[C@H](CCCCN)NC(=O)[C@@H]3CSSC[C@@H](C(=O)N[C@H](C(=O)N4CCC[C@H]4C(=O)N[C@@H](CCCCN)C(=O)O)[C@@H](C)O)NC(=O)[C@H](CC(=O)O)NC(=O)[C@H](CSSC[C@H](NC(=O)[C@H](CCC(N)=O)NC(=O)CNC(=O)[C@H](CO)NC(=O)[C@H](Cc4c[nH]cn4)NC(=O)[C@H](CCCCN)NC1=O)C(=O)N[C@@H](CC(C)C)C(=O)N[C@@H](CCCCN)C(=O)N1CCC[C@H]1C(=O)N3)NC(=O)[C@H](CCCCN)NC(=O)CNC(=O)[C@H](CC(N)=O)NC(=O)[C@H]([C@@H](C)CC)NC2=O)C(C)C [BmKTX-196] (H-VGINVDCKHSGQCLKPCKKAGMRFGKCINGKCDCTPK-OH; disulfide 7-27, 13-32, 17-34)
Effect on Kv11.1 channel currents (Kv11.1): much less of an effect | Inhibition of Kv1.3 channel currents (Kv1.3 channel; 10 nM peptide, whole-cell patch clamp, HEK293): more than 50% | IC50 (Kv1.3 channel; whole-cell patch clamp, HEK293 transfected with mouse Kv1.3, 22-25°C, Hill fit, at least five concentrations, mean ± S.E. of at least three experiments, read-out: IC50 for inhibiting Kv1.3 channel current): 7.3 ± 1.8 nM

BmKTX-19/K6A: alanyl mutant of BmKTX-19 at Lys6 (VGINVACKHSGQCLKPCKKAGMRFGKCINGKCDCTPKG; ends and bridges not checked; cysteine pairing not given here)
Impact on the inhibitory potency of BmKTX-19 on Kv1.3 (Kv1.3 channel; alanine-scanning mutagenesis, alanyl mutants of BmKTX-19, compared with the Lys8, His9 and Lys15 substitutions): much less of an impact

BmKTX-196/H9A: alanyl mutant of BmKTX-196 at His9 (VGINVDCKASGQCLKPCKKAGMRFGKCINGKCDCTPKG; ends and bridges not checked; cysteine pairing not given here)
Reduction of the affinity of BmKTX-196 for the Kv1.3 channel (Kv1.3 channel; alanine-scanning mutagenesis): 3 fold

BmKTX-196/K8A: alanyl mutant of BmKTX-196 at Lys8 (VGINVDCAHSGQCLKPCKKAGMRFGKCINGKCDCTPKG; ends and bridges not checked; cysteine pairing not given here)
Reduction of the affinity of BmKTX-196 for the Kv1.3 channel (Kv1.3 channel; alanine-scanning mutagenesis): 68 fold
